The values that follow come from patent US8357686B2, “Aryl-substituted polycyclic amines, method for the production thereof, and use thereof as a medicament” (Sanofi-Aventis Deutschland GmbH, priority 2004, dated 2013).

The experiment deals with female NMRI mice. In words: Anorectic effect: cumulative condensed milk consumption in fasted mice. The format is in vivo. The conditions noted are these: oral dose 30 mg/kg by gavage after withdrawal of feed for 17 hours, condensed milk offered 30 minutes after administration, consumption determined for 7 hours, compared with vehicle-treated control animals. On the procedure: The anorectic effect was tested on female NMRI mice. After withdrawal of feed for 17 hours, the test product was administered by gavage. The animals were housed singly with free access to drinking water and were offered condensed milk 30 minutes after administration of the product. The condensed milk consumption was determined every half hour for 7 hours, and the general wellbeing of the animals was observed. The measured milk consumption was compared with the vehicle-treated control animals.

For the compound `CCCCOc1ccc(C(=O)Nc2ccc(OC[C@@H]3CCCN4CCCC[C@H]34)cc2)cc1` [Example 2, 4-Butoxy-N-{4-[(1R,9aR)-1-(octahydroquinolizin-1-yl)methoxy]phenyl}-benzamide], the “Reduction in cumulative milk consumption as % of the control” value is 73%.

Take `O=C(Nc1ccc(OC[C@@H]2CCCN3CCCC[C@H]23)cc1)N1CCC(c2ccc(Cl)cc2)CC1` [Example 37]: the “Reduction in cumulative milk consumption as % of the control” value is 24%.
